The numbers were not newly measured in patent US9642389B2 (MALAYSIAN PALM OIL BOARD, priority 2009, dated 2017), which cites them from elsewhere.

The subject of one data set is Fos. The following applies: aged rats, literature [34].
Data set [1] concerns brains of ovariectomized female rats. To be noted: literature [33].
The test system of the next data set is mice. To be noted: literature [16-20].

On to `CC(C)=CCC[C@](C)(O[C@@H]1O[C@H](CO)[C@@H](O)[C@H](O)[C@H]1O)[C@H]1CC[C@]2(C)[C@@H]1[C@H](O)C[C@@H]1[C@@]3(C)CC[C@H](O)C(C)(C)[C@@H]3[C@@H](O[C@@H]3O[C@H](CO)[C@@H](O)[C@H](O)[C@H]3O)C[C@]12C` [ginsenoside Rg1], for which the “age-related decline of Fos in the hippocampi” value in the data set with Fos was “attenuated”.
Consider `O=c1c(O)c(-c2ccc(O)c(O)c2)oc2cc(O)cc(O)c12` [quercetin], for which the “rate of protein synthesis in brains” value in data set [1] is “up-regulated”.
Turning to `Oc1ccc(C=Cc2cc(O)cc(O)c2)cc1` [resveratrol], the “performance of mice on rotarods” value with mice was “improve”.
